Values of other authors, collected in US20110150946A1 (priority 2008, published 2011).

Conditions: sublingual apomorphine 4 mg per patient

Structure (SMILES): CN1CCc2cccc3c2[C@H]1Cc1ccc(O)c(O)c1-3 [apomorphine, 5,6,6a,7-tetrahydro-6-methyl-4H-dibenzo[de, g]quinoline-10,11-diol]
- nausea incidence: 14.1%
